Source: US12617793B2, “Organic electron transfer mediator and device comprising same” (I-sens, Inc., priority 2019, dated 2026)

Legend:
[1] = Cyclic voltammetry of organic electron-transfer mediators (oxidation reduction potential vs Ag/AgCl); format: physicochemical; settings: for Eox / Ered: pH 7.0, 2 mg/mL in water, 0.1M PBS buffer, vs Ag/AgCl
[2] = Solubility depending on the solvent (seen from CV current strength); settings: for solubility in water: water / 0.1 M PBS aqueous buffer
[3] = compared to the Ag/AgCl reference electrode; cited from earlier work
[4] = Stability test by pH and solvent (CV after one day of the solution; colour change); format: physicochemical

C=CCn1c2nc(=O)[nH]c(=O)c-2nc2cc(C#N)c(C#N)cc21 [Chemical formula 15]
E1/2 (vs Ag/AgCl) ([1]; 0.1M PBS in H2O): −0.196 V
Eox [1]: −0.120 V
Ered [1]: −0.216 V
solubility in water [2]: very low

Cc1cc2nc3c(=O)[nH]c(=O)nc-3n(C)c2cc1C [flavin [or isoalloxazine]derivative]
oxidation reduction potential [3]: −0.46 V

N#Cc1cc2nc3c(=O)[nH]c(=O)nc-3n(CCCS(=O)(=O)O)c2cc1C#N [Chemical formula 2, 3-(7,8-dicyano-2,4-dioxo-3,4-dihydrobenzo[g]pteridin-10(2H)-yl)propane-1-sulfonic acid]
E1/2 (vs Ag/AgCl) ([1]; 0.1M PBS in H2O): −0.172 V
E1/2 (vs Ag/AgCl) ([1]; 0.1M TBAP in CH3CN): −0.315 V
E1/2 (vs Ag/AgCl) ([1]; 0.1M TBAP in DMSO): 0.061 V
Eox [1]: −0.139 V
Ered [1]: −0.229 V
stability in DMSO ([4]; 0.1M TBAP in DMSO): changed to a different structure under DMSO
stability by pH ([4]; CV after one day of the solution at pH 4-9): the current value decreased under the basic condition

COc1ccc(Cn2c3nc(=O)[nH]c(=O)c-3nc3cc(C#N)c(C#N)cc32)cc1 [Chemical formula 10, 10-(4-methoxybenzyl)-2,4-dioxo-2,3,4,10-tetrahydrobenzo[g]pteridine-7,8-dicarbonitrile]
E1/2 (vs Ag/AgCl) ([1]; 0.1M TBAP in DMSO): −0.298 V

Cc1ccc(Cn2c3nc(=O)[nH]c(=O)c-3nc3cc(C#N)c(C#N)cc32)cc1 [Chemical formula 9, 10-(4-methylbenzyl)-2,4-dioxo-2,3,4,10-tetrahydrobenzo[g]pteridine-7,8-dicarbonitrile]
E1/2 (vs Ag/AgCl) ([1]; 0.1M TBAP in DMSO): −0.296 V

N#Cc1cc2nc3c(=O)[nH]c(=O)nc-3n(CCCCCO)c2cc1C#N [Chemical formula 6, 10-(5-hydroxypentyl)-2,4-dioxo-2,3,4,10-tetrahydrobenzo[g]pteridine-7,8-dicarbonitrile]
E1/2 (vs Ag/AgCl) ([1]; 0.1M TBAP in DMSO): −0.325 V

CC(C)(C)OC(=O)NCCCCCn1c2nc(=O)[nH]c(=O)c-2nc2cc(C#N)c(C#N)cc21 [Chemical formula 4, tert-butyl (5-(7,8-dicyano-2,4-dioxo-3,4-dihydrobenzo[g]pteridin-10(2H)-yl)pentyl)carbamate]
E1/2 (vs Ag/AgCl) ([1]; 0.1M TBAP in CH3CN): −0.330 V

CC(C)(C)OC(=O)NCCCCCCn1c2nc(=O)[nH]c(=O)c-2nc2cc(C#N)c(C#N)cc21 [Chemical formula 5, tert-butyl (6-(7,8-dicyano-2,4-dioxo-3,4-dihydrobenzo[g]pteridin-10(2H)-yl)hexyl)carbamate]
E1/2 (vs Ag/AgCl) ([1]; 0.1M TBAP in CH3CN): −0.330 V

N#Cc1cc2nc3c(=O)[nH]c(=O)nc-3n(CCO)c2cc1C#N [Chemical formula 16]
E1/2 (vs Ag/AgCl) ([1]; 0.1M PBS in H2O): −0.154 V
E1/2 (vs Ag/AgCl) ([1]; 0.1M PBS in H2O, listed as drawing 56): −0.153 V
E1/2 (vs Ag/AgCl) ([1]; 0.1M TBAP in CH3CN): −0.319 V
E1/2 (vs Ag/AgCl) ([1]; 0.1M TBAP in DMSO): −0.315 V
solubility in acetonitrile ([2]; 0.1M TBAP in CH3CN): very low
solubility in water [2]: prominent

N#Cc1cc2nc3c(=O)[nH]c(=O)nc-3n(Cc3ccccc3)c2cc1C#N [Chemical formula 3, 10-benzyl-7,8-dicyanoisoalloxazine]
E1/2 (vs Ag/AgCl) ([1]; 0.1M TBAP in DMSO): −0.285 V

N#Cc1cc2nc3c(=O)[nH]c(=O)nc-3n(CCOCCO)c2cc1C#N [Chemical formula 7, 10-(2-(2-hydroxyethoxy)ethyl)-2,4-dioxo-2,3,4,10-tetrahydrobenzo[g]pteridine-7,8-dicarbonitrile]
E1/2 (vs Ag/AgCl) ([1]; 0.1M TBAP in DMSO): −0.315 V

N#Cc1cc2nc3c(=O)[nH]c(=O)nc-3[nH]c2cc1C#N [Chemical formula 8, 2,4-dioxo-2,3,4,10-tetrahydrobenzo[g]pteridine-7,8-dicarbonitrile]
E1/2 (vs Ag/AgCl) ([1]; 0.1M TBAP in DMSO): −0.494 V
